Assays:
CLL cells = experiment: XTT viability, CLL cells (DT97 vs idelalisib); assay type: cell-based; settings: 1 uM, 72 h, XTT assay
p110-α = p110-α (Homo sapiens, UniProt P42336); set-up: method as in PMID 20959606; settings: Class I PI3Ks; cited from earlier work
p110-β = p110-β (Homo sapiens, UniProt P42338); set-up: method as in PMID 20959606; settings: Class I PI3Ks; cited from earlier work
p110-γ = p110-γ (Homo sapiens, UniProt P48736); set-up: method as in PMID 20959606; key to the marks not given beside the values; settings: Class I PI3Ks; cited from earlier work
p110-δ = p110-δ (Homo sapiens, UniProt O00329); set-up: method as in PMID 20959606; key to the marks not given beside the values; settings: Class I PI3Ks; cited from earlier work
PKC2-α = PKC2-α (Homo sapiens, UniProt O00443); set-up: method as in PMID 20959606; settings: Class II PI3Ks; cited from earlier work
PKCγ = tested on: PKCγ; set-up: method as in PMID 20959606; settings: cited from earlier work
PDGFR = tested on: PDGFR; set-up: method as in PMID 20959606; settings: Other Clinically-relevant Kinases; cited from earlier work
ERBB2 = ERBB2 (Homo sapiens, UniProt P04626); set-up: method as in PMID 20959606; settings: Other Clinically-relevant Kinases; cited from earlier work
ERBB4 = ERBB4 (Homo sapiens, UniProt Q15303); set-up: method as in PMID 20959606; settings: Other Clinically-relevant Kinases; cited from earlier work
MM.1S myeloma cells = experiment: Mouse xenograft model of myeloma; assay type: in vivo, mice; settings: subcutaneous myeloma xenograft; intravenous; bortezomib 0.5 mg/kg, DT97 10 mg/kg
Protocol: Five week old nude mice flanks are injected subcutaneously with MM.1S myeloma cells. Tumors formed within two weeks and mice were then treated intravenously with vehicle, bortezomib, DT97 or both bortezomib and DT97.
Subcutaneous tumors were generated after injection of myeloma cells. […] Vehicle or bortezomib was administered on days 1, 4, 8 and 11. Mice were euthanized when tumors reached 2 cm^3, became ulcerated or elicited neurologic or musculoskeletal complications that limited mobility and feeding. Survival and tumor growth were evaluated from the first day of treatment. Shown is the average of replicate measurements. […] Kaplan-Meier survival curves comparison of NOD. SCID mice after subcutaneous injection of parental myeloma cells treated with vehicle, DT97, bortezomib or both.
Mice received intravenous injection of either vehicle (PBS in 10% DMSO); bortezomib (0.5 mg/kg), DT97 (10 mg/kg) or both bortezomib and DT97. Tumor volume (TV) measurements were made using a vernier caliper and calculated using the formula: TV = 0.5 (a × b^2) where a is the long diameter and b the short diameter. Mice were euthanized when tumors reached 2 cm^3, became ulcerated or elicited neurologic or musculoskeletal complications that limited mobility and feeding.
In vivo statistical tests were performed using the 2-tailed Student t test.

ERBB4, sequence (Q15303 26-1308): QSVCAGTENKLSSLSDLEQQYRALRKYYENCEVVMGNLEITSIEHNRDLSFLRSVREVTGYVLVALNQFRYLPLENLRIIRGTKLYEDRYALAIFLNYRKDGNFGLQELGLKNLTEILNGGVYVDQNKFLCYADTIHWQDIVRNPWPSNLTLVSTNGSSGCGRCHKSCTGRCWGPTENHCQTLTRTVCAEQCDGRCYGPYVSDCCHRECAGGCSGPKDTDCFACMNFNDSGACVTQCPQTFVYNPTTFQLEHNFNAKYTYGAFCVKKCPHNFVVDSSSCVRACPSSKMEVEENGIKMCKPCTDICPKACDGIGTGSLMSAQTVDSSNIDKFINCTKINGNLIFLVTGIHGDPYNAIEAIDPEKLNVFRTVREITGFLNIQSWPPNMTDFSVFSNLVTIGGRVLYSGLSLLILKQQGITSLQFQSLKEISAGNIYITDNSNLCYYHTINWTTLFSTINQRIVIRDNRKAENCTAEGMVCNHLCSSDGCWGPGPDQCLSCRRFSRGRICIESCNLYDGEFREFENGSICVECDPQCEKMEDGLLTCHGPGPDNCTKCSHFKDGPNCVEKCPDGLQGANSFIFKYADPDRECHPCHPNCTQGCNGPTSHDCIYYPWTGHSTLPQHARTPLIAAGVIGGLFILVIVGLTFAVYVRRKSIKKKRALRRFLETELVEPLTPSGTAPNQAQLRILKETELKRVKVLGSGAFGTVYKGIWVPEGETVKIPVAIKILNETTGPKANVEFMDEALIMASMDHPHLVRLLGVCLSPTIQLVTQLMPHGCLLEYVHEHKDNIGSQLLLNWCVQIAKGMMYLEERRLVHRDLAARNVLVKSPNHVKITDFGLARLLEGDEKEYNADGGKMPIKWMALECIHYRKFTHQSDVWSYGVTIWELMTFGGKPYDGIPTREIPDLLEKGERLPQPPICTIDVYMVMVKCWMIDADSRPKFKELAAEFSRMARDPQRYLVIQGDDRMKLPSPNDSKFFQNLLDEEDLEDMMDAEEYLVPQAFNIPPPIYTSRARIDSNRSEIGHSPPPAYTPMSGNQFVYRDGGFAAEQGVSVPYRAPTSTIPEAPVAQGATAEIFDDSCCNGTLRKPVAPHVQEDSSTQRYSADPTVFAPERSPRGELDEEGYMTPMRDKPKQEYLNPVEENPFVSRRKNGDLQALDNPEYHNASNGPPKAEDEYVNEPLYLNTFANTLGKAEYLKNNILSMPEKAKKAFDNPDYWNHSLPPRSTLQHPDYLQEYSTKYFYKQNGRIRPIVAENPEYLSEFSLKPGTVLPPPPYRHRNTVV
p110-α, sequence (P42336 whole entry): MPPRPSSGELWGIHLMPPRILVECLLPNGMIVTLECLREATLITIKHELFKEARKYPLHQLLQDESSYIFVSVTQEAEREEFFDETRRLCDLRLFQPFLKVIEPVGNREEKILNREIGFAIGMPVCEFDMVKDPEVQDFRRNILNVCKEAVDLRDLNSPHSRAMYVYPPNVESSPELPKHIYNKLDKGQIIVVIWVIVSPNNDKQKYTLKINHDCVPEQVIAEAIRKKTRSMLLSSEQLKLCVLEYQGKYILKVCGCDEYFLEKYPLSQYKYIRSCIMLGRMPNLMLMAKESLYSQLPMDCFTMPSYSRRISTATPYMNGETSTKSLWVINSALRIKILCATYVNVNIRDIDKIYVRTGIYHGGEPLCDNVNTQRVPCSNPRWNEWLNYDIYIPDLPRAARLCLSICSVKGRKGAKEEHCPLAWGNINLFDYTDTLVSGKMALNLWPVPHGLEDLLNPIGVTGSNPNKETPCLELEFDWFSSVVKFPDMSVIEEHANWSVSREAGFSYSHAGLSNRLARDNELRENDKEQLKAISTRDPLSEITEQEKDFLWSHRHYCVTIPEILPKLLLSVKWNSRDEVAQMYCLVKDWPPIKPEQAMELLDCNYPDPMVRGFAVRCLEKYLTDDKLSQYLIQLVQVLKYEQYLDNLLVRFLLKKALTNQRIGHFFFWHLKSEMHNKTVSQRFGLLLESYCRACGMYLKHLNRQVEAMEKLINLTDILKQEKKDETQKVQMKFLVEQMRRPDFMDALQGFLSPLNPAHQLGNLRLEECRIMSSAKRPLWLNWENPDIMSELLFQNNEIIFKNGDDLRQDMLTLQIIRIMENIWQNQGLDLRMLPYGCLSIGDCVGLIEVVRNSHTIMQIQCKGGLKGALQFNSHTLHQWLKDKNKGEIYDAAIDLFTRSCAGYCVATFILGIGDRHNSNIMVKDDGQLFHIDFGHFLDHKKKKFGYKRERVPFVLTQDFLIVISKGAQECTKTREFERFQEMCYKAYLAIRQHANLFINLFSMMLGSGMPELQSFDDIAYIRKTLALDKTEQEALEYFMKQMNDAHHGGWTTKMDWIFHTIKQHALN
p110-α, sequence (P27986 whole entry partner): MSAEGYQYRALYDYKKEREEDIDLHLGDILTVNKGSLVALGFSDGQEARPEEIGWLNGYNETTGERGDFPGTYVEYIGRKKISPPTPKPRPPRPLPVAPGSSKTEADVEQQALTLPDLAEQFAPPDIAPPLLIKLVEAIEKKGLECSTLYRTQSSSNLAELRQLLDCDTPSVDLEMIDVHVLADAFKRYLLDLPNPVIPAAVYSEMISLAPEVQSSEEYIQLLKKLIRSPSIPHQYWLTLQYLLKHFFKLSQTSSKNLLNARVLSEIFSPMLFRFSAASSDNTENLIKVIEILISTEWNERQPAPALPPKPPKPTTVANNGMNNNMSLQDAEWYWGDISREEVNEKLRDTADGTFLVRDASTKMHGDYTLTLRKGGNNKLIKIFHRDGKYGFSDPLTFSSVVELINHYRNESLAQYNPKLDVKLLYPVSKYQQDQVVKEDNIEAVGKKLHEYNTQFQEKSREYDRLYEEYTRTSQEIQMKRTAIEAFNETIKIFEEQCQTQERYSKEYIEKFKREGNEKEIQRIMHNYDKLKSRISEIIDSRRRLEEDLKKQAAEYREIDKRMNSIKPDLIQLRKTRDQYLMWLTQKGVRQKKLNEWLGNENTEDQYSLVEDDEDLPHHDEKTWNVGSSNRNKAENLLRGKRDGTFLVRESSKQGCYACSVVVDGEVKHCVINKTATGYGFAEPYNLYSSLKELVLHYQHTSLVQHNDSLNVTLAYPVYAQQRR
p110-γ, sequence (P48736 whole entry): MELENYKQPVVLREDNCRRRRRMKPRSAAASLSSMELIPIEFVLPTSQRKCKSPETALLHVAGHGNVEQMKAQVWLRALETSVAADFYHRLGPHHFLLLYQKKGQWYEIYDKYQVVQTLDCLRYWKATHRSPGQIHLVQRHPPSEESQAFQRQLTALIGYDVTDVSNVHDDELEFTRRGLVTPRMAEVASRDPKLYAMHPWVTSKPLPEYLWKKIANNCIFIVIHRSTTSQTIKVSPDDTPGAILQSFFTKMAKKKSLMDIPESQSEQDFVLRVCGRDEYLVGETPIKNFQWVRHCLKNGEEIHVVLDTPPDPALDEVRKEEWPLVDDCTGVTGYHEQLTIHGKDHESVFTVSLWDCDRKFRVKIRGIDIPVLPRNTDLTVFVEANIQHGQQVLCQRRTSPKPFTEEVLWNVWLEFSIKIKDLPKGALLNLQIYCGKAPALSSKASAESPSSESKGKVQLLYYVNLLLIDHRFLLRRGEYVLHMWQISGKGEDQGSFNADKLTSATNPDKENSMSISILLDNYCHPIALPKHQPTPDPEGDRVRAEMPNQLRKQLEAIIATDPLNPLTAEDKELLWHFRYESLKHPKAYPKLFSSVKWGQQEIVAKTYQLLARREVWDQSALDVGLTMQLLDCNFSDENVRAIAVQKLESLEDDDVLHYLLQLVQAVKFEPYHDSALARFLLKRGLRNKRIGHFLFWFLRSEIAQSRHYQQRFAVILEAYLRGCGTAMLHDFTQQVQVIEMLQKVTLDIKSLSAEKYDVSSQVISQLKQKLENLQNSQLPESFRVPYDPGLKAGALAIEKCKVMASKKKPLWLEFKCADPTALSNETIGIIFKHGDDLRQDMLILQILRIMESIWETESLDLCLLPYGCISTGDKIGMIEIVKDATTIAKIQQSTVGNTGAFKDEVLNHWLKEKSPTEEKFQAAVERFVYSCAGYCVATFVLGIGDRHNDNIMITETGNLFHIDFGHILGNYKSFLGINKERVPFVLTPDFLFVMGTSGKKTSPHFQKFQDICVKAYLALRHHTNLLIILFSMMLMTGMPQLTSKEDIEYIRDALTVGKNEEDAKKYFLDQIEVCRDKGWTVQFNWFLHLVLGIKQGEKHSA

Structure (SMILES)	viability (CLL cells)	Inhibitory profile (kinase inhibition) (p110-α)	Inhibitory profile (kinase inhibition) (p110-β)	Inhibitory profile (kinase inhibition) (p110-γ)	Inhibitory profile (kinase inhibition) (p110-δ)	Inhibitory profile (kinase inhibition) (PKC2-α)	Inhibitory profile (kinase inhibition) (PKCγ)	Inhibitory profile (kinase inhibition) (PDGFR)	Inhibitory profile (kinase inhibition) (ERBB2)	Inhibitory profile (kinase inhibition) (ERBB4)	overall survival (OS) (MM.1S myeloma cells)	tumor growth (MM.1S myeloma cells)
CC[C@H](Nc1ncnc2[nH]cnc12)c1nc2cccc(F)c2c(=O)n1-c1ccccc1 [Idelalisib, idelalisib]	more effectively reduced the viability	+	+	++	+++	none	none	none	none	none	–	–
CC(C)C[C@H](NC(=O)[C@H](Cc1ccccc1)NC(=O)c1cnccn1)B(O)O [bortezomib]	–	–	–	–	–	–	–	–	–	–	20 days	dramatically reduced tumor growth
